Experimental data from patent US9815851B2, “Pyrrolo carboxamides as modulators of orphan nuclear receptor RAR-related orphan receptor-gamma (RORγ, NR1F3) activity and for the treatment of chronic inflammatory and autoimmune diseases” (PHENEX PHARMACEUTICALS AG, priority 2011, dated 2017).
Like-named read-outs stand apart in the source and are kept apart here.

What was measured:
RORγ = molecular target: T1, RORγ (UniProt P51449); test: RORγ Gal4 Reporter Gene Assay in 293T cells (firefly and renilla luciferase); type: cell-based, human
T1 sequence (P51449 1-518): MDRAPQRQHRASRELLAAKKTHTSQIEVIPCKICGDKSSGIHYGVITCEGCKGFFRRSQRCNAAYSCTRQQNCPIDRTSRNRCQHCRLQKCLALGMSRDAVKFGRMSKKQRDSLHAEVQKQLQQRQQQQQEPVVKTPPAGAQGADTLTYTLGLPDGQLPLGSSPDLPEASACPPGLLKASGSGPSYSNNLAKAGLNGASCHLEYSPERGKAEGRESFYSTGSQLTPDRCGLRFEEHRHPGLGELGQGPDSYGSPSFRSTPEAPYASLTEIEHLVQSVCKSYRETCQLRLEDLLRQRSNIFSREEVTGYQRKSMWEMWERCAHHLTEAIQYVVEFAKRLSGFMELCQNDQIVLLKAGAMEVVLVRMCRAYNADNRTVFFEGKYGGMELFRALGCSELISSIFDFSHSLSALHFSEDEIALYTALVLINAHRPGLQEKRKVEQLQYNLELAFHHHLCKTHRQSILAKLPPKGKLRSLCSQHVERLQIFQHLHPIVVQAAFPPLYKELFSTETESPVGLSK

[1] = molecular target: T2, RORγ ligand binding domain (LBD) (Homo sapiens, UniProt P51449); test: TR-FRET Activity Assay (ligand sensing, RORγ-LBD / coactivator peptide interaction, LANCE); type: biochemical
T2 construct: made in house; host or cells: E. coli BL-21 (BL3), vector pDEST15
T2 sequence (P51449 269-508 limits assumed): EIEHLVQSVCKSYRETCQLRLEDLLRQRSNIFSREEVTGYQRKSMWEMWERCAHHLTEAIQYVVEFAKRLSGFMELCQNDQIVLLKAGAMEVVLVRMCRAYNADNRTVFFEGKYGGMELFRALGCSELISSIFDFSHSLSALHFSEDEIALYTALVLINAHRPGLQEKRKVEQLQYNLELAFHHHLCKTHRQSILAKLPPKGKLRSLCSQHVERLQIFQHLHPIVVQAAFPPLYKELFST

[2] = second value of the cell, Gal4 reporter gene assay in 293T cells, firefly luciferase
[3] = third value of the cell, Gal4 reporter gene assay in 293T cells, renilla normalised luciferase
[4] = first value of the cell FRET/FF/REN, TR-FRET activity assay, read-out: pIC50 (FRET) (converted)

Compound: Cc1c(C(=O)NC2COC2)cc(-c2cc(C(C)(C)C)cc(C3(C)CC3)c2)n1CC1CCCCC1 [1/81]
- pIC50 (FF) (RORγ; [2]): 7.4
- pIC50 (REN) (RORγ; [3]): 7.4
- IC50 [1, 4]: 200 nM

Compound: CCC(C)(C)NC(=O)c1cc(-c2cc(C(=O)NC3COC3)c(C)n2CC2CCCCC2)cc(C(F)(F)F)c1 [15/3]
- pIC50 (FF) (RORγ; [2]): 7.0
- pIC50 (REN) (RORγ; [3]): 7.1
- IC50 [1, 4]: 398 nM

Compound: Cc1c(C(=O)NCCC(C)(C)C(=O)O)cc(-c2cc(C(C)(C)C)cc(C(F)(F)F)c2)n1CC1CCCCC1 [17/305]
- pIC50 (FF) (RORγ): 5.7/6.8/6.7
- pIC50 (REN) (RORγ): 5.7/6.8/6.7
- IC50 [1]: 2000 nM

Compound: CNC(=O)C(C)(C)CNC(=O)c1cc(-c2ccc(S(=O)(=O)NC(C)(C)C)c(C(F)(F)F)c2)n(CC2CCCCC2)c1C [17/204]
- pIC50 (FF) (RORγ; [2]): 6.7
- pIC50 (REN) (RORγ; [3]): 6.8
- IC50 [1, 4]: 794 nM

Compound: Cc1c(C(=O)NC2CCOCC2)cc(-c2ccc(S(=O)(=O)NC(C)(C)C)c(C(F)(F)F)n2)n1CC1CCCCC1 [17/245]
- pIC50 (FF) (RORγ; [2]): 5.7
- pIC50 (REN) (RORγ; [3]): 5.7
- IC50 [1, 4]: > 20000 nM

Compound: Cc1c(C(=O)NCCCCCN2CCOCC2)cc(-c2cc(C(C)(C)C)cc(C(C)(C)C)c2)n1CC1CCCCC1 [1/75]
- pIC50 (FF) (RORγ): 5.31/<4.7<4.7
- pIC50 (REN) (RORγ): 5.31/<4.7<4.7
- IC50 [1]: 4900 nM

Compound: Cc1c(C(=O)NC2C[S+]([O-])C2)cc(-c2ccc(S(=O)(=O)NC(C)(C)C)c(C(C)(C)C)c2)n1CC1CCCCC1 (stereo not drawn) [2/1]
- pIC50 (FF) (RORγ): 6.1/6.5/6.5
- pIC50 (REN) (RORγ): 6.1/6.5/6.5
- IC50 [1]: 794 nM

Compound: Cc1c(C(=O)N2CCC(C)(C(=O)O)CC2)cc(-c2ccc(S(=O)(=O)NC(C)(C)C)c(C(F)(F)F)c2)n1CC1CCCCC1 [17/224]
- pIC50 (FF) (RORγ; [2]): 7.1
- pIC50 (REN) (RORγ; [3]): 7.2
- IC50 [1, 4]: 794 nM

Compound: Cc1c(C(=O)NC2CCOCC2)cc(-c2ccc(S(=O)(=O)NC(C)(C)C)c(C(F)(F)F)c2)n1[C@@H](C)C1CCCCC1 [17/253]
- pIC50 (FF) (RORγ; [2]): 7.0
- pIC50 (REN) (RORγ; [3]): 7.2
- IC50 [1, 4]: 631 nM

Compound: Cc1c(C(=O)NC2CCOCC2)cc(-c2ccc(S(=O)(=O)NC(C)(C)C)c3c2CCCC3)n1CC1CCCCC1 [17/280]
- pIC50 (FF) (RORγ; [2]): 8.1
- pIC50 (REN) (RORγ; [3]): 8.1
- IC50 [1, 4]: 1000 nM

Compound: Cc1c(C(=O)NC2CC(=O)C2)cc(-c2cc(C(C)(C)C)c3c(c2)C2(CCO3)CC2)n1CC1CCCCC1 [17/21]
- pIC50 (FF) (RORγ): 6.2/7.0/6.9
- pIC50 (REN) (RORγ): 6.2/7.0/6.9
- IC50 [1]: 631 nM

Compound: Cc1c(C(=O)N2CC(CC(=O)O)C2)cc(-c2ccc(S(=O)(=O)NC(C)(C)C)c(C(F)(F)F)c2)n1CC1CCCCC1 [17/179]
- pIC50 (FF) (RORγ; [2]): 6.1
- pIC50 (REN) (RORγ; [3]): 6.1
- IC50 [1, 4]: 398 nM

Compound: Cc1c(C(=O)NC2CCOCC2)cc(-c2cc3c(c(C(C)(C)C)c2)OCCC3=NO)n1CC1CCCCC1 [18/3]
- pIC50 (FF) (RORγ; [2]): 6.1
- pIC50 (REN) (RORγ; [3]): 6.5
- IC50 [1, 4]: 1580 nM

Compound: Cc1c(C(=O)NCC(C)(C)C(=O)NCCCO)cc(-c2cc(C(C)(C)C)c3c(c2)C2(CCO3)CC2)n1CC1CCCCC1 [11/6]
- pIC50 (FF) (RORγ; [2]): 8.0
- pIC50 (REN) (RORγ; [3]): 8.2
- IC50 [1, 4]: 251 nM

Compound: Cc1noc2ccc(-c3cc(C(N)=O)c(C)n3CC3CCCCC3)cc12 [1/49]
- pIC50 (FF) (RORγ; [2]): 6.2
- pIC50 (REN) (RORγ; [3]): 6.6
- IC50 [1, 4]: 31600 nM

Compound: Cc1c(C(=O)NCCN(C)C)cc(-c2cc(C(C)(C)C)cc(C(C)(C)C)c2)n1CC1CCCCC1 [1/56]
- pIC50 (FF) (RORγ): 5.5/<4.7/<4.7
- pIC50 (REN) (RORγ): 5.5/<4.7/<4.7
- IC50 [1]: 3160 nM

Compound: COC(C)(C)CNC(=O)c1cc(-c2cc(C(C)(C)C)c3c(c2)C2(CCO3)CC2)n(CC2CCCCC2)c1C [1/97]
- pIC50 (FF) (RORγ): 6.6/7.1/7.0
- pIC50 (REN) (RORγ): 6.6/7.1/7.0
- IC50 [1]: 251 nM

Compound: COC(C)(C)c1cc(C(=O)NC(C)(C)C)cc(-c2cc(C(=O)NC3CCOCC3)c(C)n2CC2CCCCC2)c1 [17/324]
- pIC50 (FF) (RORγ): 5.5/6.8/6.8
- pIC50 (REN) (RORγ): 5.5/6.8/6.8
- IC50 [1]: 3160 nM

Compound: Cc1c(C(=O)NC2CCOCC2)cc(-c2cc(F)c(NS(=O)(=O)C(C)(C)C)c(C(F)(F)F)c2)n1CC1CCCCC1 [17/248]
- pIC50 (FF) (RORγ; [2]): 6.4
- pIC50 (REN) (RORγ; [3]): 7.3
- IC50 [1, 4]: 2510 nM

Compound: Cc1c(C(=O)NC2COC2)cc(-c2cnc(NCC(C)(C)C)c(C(F)(F)F)c2)n1CC1CCCCC1 [9/12]
- pIC50 (FF) (RORγ; [2]): 6.3
- pIC50 (REN) (RORγ; [3]): 6.5
- IC50 [1, 4]: 1580 nM

Compound: Cc1c(C(=O)NC2COC2)cc(-c2cc(OCC(C)(C)C)nc(C(C)(C)C)c2)n1CC1CCCCC1 [1/120]
- pIC50 (FF) (RORγ): 6.9/7.1/7.3
- pIC50 (REN) (RORγ): 6.9/7.1/7.3
- IC50 [1]: 126 nM

Compound: Cc1c(C(=O)N(C)C2CCOCC2)cc(-c2ccc(S(=O)(=O)NC(C)(C)C)c(C(C)(C)C)c2)n1CC1CCCCC1 [17/95]
- pIC50 (FF) (RORγ; [2]): 7.8
- pIC50 (REN) (RORγ; [3]): 7.7
- IC50 [1, 4]: 631 nM

Compound: COC(=O)C(C)(C)CCNC(=O)c1cc(-c2cc(C(C)(C)C)cc(C3(C)CC3)c2)n(CC2CCCCC2)c1C [17/153]
- pIC50 (FF) (RORγ; [2]): 6.7
- pIC50 (REN) (RORγ; [3]): 6.7
- IC50 [1, 4]: 316 nM

Compound: Cc1c(C(=O)NCC2(C(N)=O)CCOCC2)cc(-c2ccc(S(=O)(=O)NC(C)(C)C)c3ccccc23)n1CC1CCCCC1 [17/267]
- pIC50 (FF) (RORγ; [2]): 7.9
- pIC50 (REN) (RORγ; [3]): 8.0
- IC50 [1, 4]: 794 nM

Compound: Cc1c(C(N)=O)cc(-c2cc(C(C)(C)C)cc(C(C)(C)C)c2)n1S(=O)(=O)N1CCCCC1 [7/8]
- pIC50 (FF) (RORγ; [2]): 6.0
- pIC50 (REN) (RORγ; [3]): 6.2
- IC50 [1, 4]: 501 nM

Compound: Cc1c(C(=O)NCC2(C)COC2)cc(-c2cc(C(C)(C)C)cc(C(C)(C)C)c2)n1CC1CCCCC1 [1/2]
- pIC50 (FF) (RORγ): 6.9/7.5/7.4
- pIC50 (REN) (RORγ): 6.9/7.5/7.4
- IC50 [1]: 126 nM

Compound: Cc1c(C(=O)NCC2(CO)COC2)cc(-c2cc(C(C)(C)C)c3c(c2)C2(CCO3)CC2)n1CC1CCCCC1 [17/8]
- pIC50 (FF) (RORγ; [2]): 7.2
- pIC50 (REN) (RORγ; [3]): 7.2
- IC50 [1, 4]: 794 nM

Compound: Cc1c(C(=O)NCCCN2CCOCC2)cc(-c2cc(C(C)(C)C)cc(C(C)(C)C)c2)n1CC1CCCCC1 [1/71]
- pIC50 (FF) (RORγ; [2]): 5.8
- pIC50 (REN) (RORγ; [3]): 5.9
- IC50 [1, 4]: 1260 nM

Compound: Cc1c(C(=O)NC2CCOCC2)cc(-c2ccc(S(=O)(=O)N[C@@H](C)C(F)(F)F)c(C(F)(F)F)c2)n1CC1CCCCC1 [17/141]
- pIC50 (FF) (RORγ; [2]): 8.3
- pIC50 (REN) (RORγ; [3]): 8.5
- IC50 [1, 4]: 316 nM

Compound: Cc1c(C(=O)NC2COC2)cc(-c2ccc(C(=O)N(C)C(C)(C)C)c(C(C)(C)C)c2)n1CC1CCCCC1 [1/31]
- pIC50 (FF) (RORγ; [2]): 6.4
- pIC50 (REN) (RORγ; [3]): 6.4
- IC50 [1, 4]: 2000 nM

Compound: Cc1c(C(=O)N[C@H]2C[C@H](C(=O)O)C2)cc(-c2ccc(S(=O)(=O)NCC(F)(F)F)c3ccccc23)n1CC1CCCCC1 [17/271]
- pIC50 (FF) (RORγ; [2]): 7.1
- pIC50 (REN) (RORγ; [3]): 7.1
- IC50 [1, 4]: 794 nM

Compound: Cc1c(C(=O)NCC(=O)O)cc(-c2cc(C(C)(C)C)cc(C(C)(C)C)c2)n1CC1CCCCC1 [1/57]
- pIC50 (FF) (RORγ; [2]): 5.8
- pIC50 (REN) (RORγ; [3]): 5.8
- IC50 [1, 4]: 2510 nM

Compound: Cc1c(C(=O)N[C@H]2C[C@H](C(=O)O)C2)cc(-c2cc(C(C)(C)C)nc(C(C)(C)C)n2)n1CC1CCCCC1 [17/354]
- pIC50 (FF) (RORγ; [2]): 7.0
- pIC50 (REN) (RORγ; [3]): 7.0
- IC50 [1, 4]: 1000 nM

Compound: Cc1c(C(=O)NC2COC2)cc(C2=NN(C(=O)C3CCCCC3)C3(CCCCC3)C2)n1CC1CCCCC1 [24/2]
- pIC50 (FF) (RORγ; [2]): < 4.7
- pIC50 (REN) (RORγ; [3]): < 4.7
- IC50 [1, 4]: 6310 nM

Compound: Cc1c(C(=O)NC2(CO)CC2)cc(-c2cc(C(C)(C)C)cc(C(C)(C)C)c2)n1CC1CCCCC1 [1/58]
- pIC50 (FF) (RORγ): 6.2/6.2/6.2
- pIC50 (REN) (RORγ): 6.2/6.2/6.2
- IC50 [1]: 631 nM
